This note sets out measurements from PMC7269146, “Jingzhaotoxin-X, a gating modifier of Kv4.2 and Kv4.3 potassium channels purified from the venom of the Chinese tarantula Chilobrachys jingzhao” (The Journal of Venomous Animals and Toxins Including …, 2020).

The assay deals with T1, Kv4.3 (Rattus norvegicus, UniProt Q62897).
T1 construct: expressed in transfected cells; host or cells: HEK293t
T1 sequence (Q62897 1-655): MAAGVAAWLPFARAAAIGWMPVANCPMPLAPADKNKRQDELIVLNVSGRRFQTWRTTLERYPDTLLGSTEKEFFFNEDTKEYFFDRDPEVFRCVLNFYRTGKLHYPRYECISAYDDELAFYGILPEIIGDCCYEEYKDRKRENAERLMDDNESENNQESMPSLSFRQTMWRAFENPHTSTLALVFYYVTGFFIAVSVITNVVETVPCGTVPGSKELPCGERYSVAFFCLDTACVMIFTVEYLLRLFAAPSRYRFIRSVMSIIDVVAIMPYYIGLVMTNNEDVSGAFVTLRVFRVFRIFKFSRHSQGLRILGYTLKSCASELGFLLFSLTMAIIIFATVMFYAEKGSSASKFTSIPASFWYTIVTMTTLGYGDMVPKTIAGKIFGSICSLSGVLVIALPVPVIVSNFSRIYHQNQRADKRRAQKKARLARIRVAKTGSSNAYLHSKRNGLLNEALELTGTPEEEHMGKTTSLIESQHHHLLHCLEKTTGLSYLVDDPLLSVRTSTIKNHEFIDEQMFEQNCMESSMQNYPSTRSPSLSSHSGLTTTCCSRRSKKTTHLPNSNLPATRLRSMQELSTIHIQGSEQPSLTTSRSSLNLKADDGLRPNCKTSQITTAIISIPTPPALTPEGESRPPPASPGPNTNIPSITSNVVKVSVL
The experiment in a line: kinetic constants of JZTX-X at Kv4.3 channel (wash-in / wash-out). The note with it: test conc. 0.5 μM, n = 8. The class given is cell-based. From the text:
Rat cDNA genes encoding Kv4.2 (Accession: NM_031730.2) and Kv4.3 (Accession: AB003587.1) were subcloned to vector pcDNA3.1. In addition, human cDNA genes encoding Nav1.7 (Accession: DQ857292.1) and Nav1.5 (Accession: AB158469.2) were subcloned to vectors pcDNA3.1-mod and pcDNA3.1, separately. Then, Kv4.2, Kv4.3, Nav1.5 and Nav1.7 constructs were transiently transfected into the human embryonic kidney 293t (HEK293t) cells using lipofectamine 2000 (Invitrogen, USA) in accordance with manufacturer protocols. Thereafter, HEK293 cells were inoculated within Dulbecco’s modified Eagle’s medium (DMEM) containing 10% fetal bovine serum (FBS) at 5% CO2 and 37°C. The Kv4.3 channel and the Kv4.2 counterpart were then transfected in the absence of β subunit. Subsequently, cells were incubated with a DNA-lipofectamine mixture (one reporter plasmid for green fluorescence protein and channel constructs) for 4-6 h, and were washed with the fresh medium.
An EPC-10 patch-clamp amplifier (HEKA, Germany) was employed to record the potassium currents at the configuration of whole-cell patch-clamp under an ambient temperature of 22-25°C. The resistance was 2.0-3.0 MΩ when the recording pipette contained a full volume of internal solution (supplemented with 140 mM KCl, 10 mM HEPES, 2.5 mM MgCl2, 5 mM ATP and 11 mM EGTA). KOH was utilized to adjust the pH to 7.2, while sucrose was employed to adjust the osmolarity to 310 mOsm/L. The culture medium was replaced with an external solution containing 150 mM NaCl, 2.5 mM CaCl2, 10 mM HEPES, 2 mM MgCl2, 5 mM KCl, and 10 mM D-glucose. Similarly, sucrose and NaOH were applied to adjust the osmolarity to 330 mOsm/L and pH to 7.4. […] The series resistance was maintained at about 5 MΩ, with 65-70% compensation. Finally, the leakage currents and linear capacitance were subtracted digitally according to the P/4 protocol.
As for kinetic calculations, curves as a function of peak currents vs. time were plotted from the toxin wash-out or wash-in moments. The software Sigmaplot 9.0 (Sigma, USA) was utilized to fit data to the first-order exponential equation. […]

Where a SMILES comes first, the peptide text is derived from it. Bridges are numbered along the chain shown (N, C = ends).

With `CC(C)C[C@@H]1NC(=O)[C@H](CCCCN)NC(=O)[C@H](Cc2ccc(O)cc2)NC(=O)[C@@H]2CSSC[C@@H]3NC(=O)[C@H](Cc4ccc(O)cc4)NC(=O)[C@H](Cc4ccccc4)NC(=O)CNC(=O)[C@H](C)NC(=O)[C@H](CSSC[C@H](NC(=O)[C@@H](N)CC(C)C)C(=O)N[C@@H](CO)C(=O)N[C@@H](CCCNC(=N)N)C(=O)N[C@@H](CCC(=O)O)C(=O)NCC(=O)N[C@@H](CCC(=O)O)C(=O)N[C@@H](Cc4ccccc4)C(=O)N2)NC(=O)[C@H](CSSC[C@@H](C(=O)N[C@@H](Cc2ccc(O)cc2)C(=O)N[C@@H](CCCNC(=N)N)C(=O)N[C@@H](CC(N)=O)C(=O)O)NC(=O)[C@H](Cc2c[nH]cn2)NC(=O)[C@H](CC(C)C)NC(=O)[C@H](C(C)C)NC(=O)[C@H](Cc2ccccc2)NC(=O)[C@H](C)NC(=O)[C@H](CCCCN)NC3=O)NC(=O)[C@H](CCCCN)NC(=O)[C@H](CCCNC(=N)N)NC1=O` [JZTX-X, Jingzhaotoxin-X] (H-LCSREGEFCYKLRKCCAGFYCKAFVLHCYRN-OH; disulfide 2-16, 9-21, 15-28; N-terminus assumed), the “kmod, Kv4.3 channel” value (inverse of τ of toxin wash-in) was 0.073 ± 0.006 s⁻¹. The compound further had a koff (inverse of τ of toxin wash-out) of 0.005 ± 0.0004 s⁻¹. This compound registered a Ki (method text: Kd = koff / kon) of 735 ± 50 nM.

The term koff denotes the first-order rate constant of dissociation. High values mean a short-lived complex, low ones a long-lived complex. As a reminder, the Ki is a dissociation constant, usually derived from enzyme kinetics or from competition with a known ligand. A high value points to a looser hold on the target.
